Columns and labels:
[1] = test system: atopic dermatitis mouse model; assay: Atopic dermatitis mouse model, oral administration; assay type: in vivo; conditions: 100 mg/kg or 500 mg/kg oral
Protocol: In order to examine inhibitory effect of 3′-sialyllactose on atopic dermatitis, ear thickness of atopic dermatitis mouse model was examined at 28 days after oral administration of 100 mg/kg or 500 mg/kg of 3′-sialyllactose. Further, the left ear skin of the mouse was cut into thin sections, stained with hematoxylin and eosin (H&E), and stained with toluidine blue.

[2] = test system: human RA-FLS; assay: Chemokine, pro-inflammatory cytokine and COX2 expression in stimulated human RA-FLS; assay type: cell-based; conditions: IL-1β-, IL-6-, IL-17-, and TNF-α-stimulated human RA-FLS; 100 μM or 250 μM, 24 hrs
Protocol: (§1) Anti-chemokine and anti-inflammatory effects of 3′-sialyllactose were examined. First, purity of mouse FLS was examined by FACS analysis, and then no effects of 3′-sialyllactose on FLS proliferation and cytotoxicity were examined by WST-1 assay (see FIGS. 14A-A to 14A-C). […] Therefore, in a subsequent in vitro experiment, 3′-sialyllactose was used at a concentration of 0 μM to 250 μM. In order to examine effects of 3′-sialyllactose on IL-1β-, IL-6-, IL-17-, and TNF-α-induced chemokines (e.g., CCL2, CCL5, CCL7, CXCL1, CXCL2, and CXCL5), pro-inflammatory cytokines (IL-1, IL-6, and TNF-α), and COX2 expression, IL-1β-, IL-6-, IL-17-, and TNF-α-stimulated human RA-FLS and mouse FLS were treated with 3′-sialyllactose (100 μM or 250 μM) for 24 hrs.

[3] = test system: extracellular-signal regulated kinase (Erk); assay: Erk phosphorylation in IL-1β-treated chondrocytes (Western blotting, densitometry); assay type: cell-based, mouse; conditions: 5 ng/ml of IL-1β, 0 μM, 50 μM, 100 μM, or 250 μM
Protocol: Chondrocytes of mouse knee joint were treated with 5 ng/ml of IL-1β for 10 min to examine activation of extracellular-signal regulated kinase (Erk) through Erk phosphorylation.
Chondrocytes were co-treated with 5 ng/ml of IL-1β and 0 μM, 50 μM, 100 μM, or 250 μM of 3′-sialyllactose, and Erk phosphorylation increased by IL-1β was confirmed to be decreased by 3′-sialyllactose (FIG. 8).

[4] = test system: Mmp13; assay: Mmp13 expression in IL-1β-treated chondrocytes (qRT-PCR, Western blotting); assay type: cell-based, mouse; conditions: 5 ng/ml of IL-1β, 0 to 250 μM, 24 hrs; concentration-dependent
Protocol: (§2) IL-1β is a representative inflammatory cytokine that decreases Col2a1 essential for cartilage formation in chondrocytes and also promotes articular inflammation and cartilage tissue destruction. Chondrocytes were treated with 5 ng/ml of IL-1β by time, and then qRT-PCR was performed using conditions and primers of the following Table 1 according to the method of Example 2-1 to examine inhibition of Mmp3 and Mmp13 expression.
(§3) Secretory proteins such as Mmp3 and Mmp13 were allowed to react at 0° C. for 20 min after reacting 900 μl of serum-free medium (conditioned medium) with 100 μl of trichloroacetic acid (TCA). Next, a supernatant was discarded by centrifugation at 12,000 rpm and 4° C. for 10 min, and then reacted with 500 μl of 100% cold acetone at […] for 1 hr. The sample reacting with 100% acetone was centrifuged to discard a supernatant, and proteins were finally precipitated and detected. Western blotting was performed using anti-Mmp3 antibody (Abcam) and anti-Mmp13 antibody (Abcam), and thickness and concentration of Western blot bands were measured by a computer program and relative values thereof were determined by densitometry.

[5] = test system: Sox-9; assay: Sox-9 reporter gene luciferase activity in chondrocytes; assay type: cell-based, mouse; conditions: co-treated with 5 ng/ml IL-1β and 0 to 250 μM for 24 hrs
Protocol: A Sox-9 reporter gene was prepared by inserting 48-bp Sox9 binding site in the first intron of human Col2a1 gene into the upstream of SV40 promoter in pGL3 vector (Zhou G et al., J Biol Chem 1998, 12, 14989-97).
1 μg of the Sox-9 reporter gene was transfected into chondrocytes using lipofectamine 2000 (Invitrogen) for 3 hrs. The transfected cells were co-treated with 5 ng/ml interleukin 1 beta (IL-1β) and 0 μM, 10 μM, 50 μM, 100 μM, or 250 μM of 3′- or 6′-sialyllactose for 24 hrs, and then chondrocytes were recovered to examine Sox-9 activity by luciferase activity.

[6] = test system: chondrocytes; assay: Cytotoxicity of sialyllactose on chondrocytes (EZ-Cytox cell viability assay); assay type: cell-based, mouse; conditions: 0 μM, 10 μM, 50 μM, 100 μM, or 250 μM, 24 hrs
Protocol: Chondrocytes were obtained from cartilage tissues derived from femoral heads, femoral condyles, and tibial plateaus of normal mouse at 5 days after birth. The obtained chondrocytes were cultured in DMEM medium (Gibco, USA) containing 10% (v/v) fetal bovine serum (Gibco, USA), 50 μg/ml of streptomycin (Sigma-Aldrich, USA) and 50 unit/ml of penicillin (Sigma-Aldrich, USA).
In order to confirm that 3′- or 6′-sialyllactose has no cytotoxicity on chondrocytes, chondrocytes were cultured in a 96-well culture plate at a density of 9×10^3 cells/well, and then treated with 3′- or 6′-sialyllactose (Genechem Inc., Daejeon, Korea) at a concentration of 0 μM, 10 μM, 50 μM, 100 μM, or 250 μM, followed by incubation in a 5% CO2 incubator at 37° C. for 24 hrs. Cytotoxicity of 3′- or 6′-sialyllactose on chondrocytes was confirmed by measuring absorbance at 450 nm using an EZ-Cytox Cell viability assay kit (DoGen, Korea).

[7] = test system: mouse models with rheumatoid arthritis; assay: Therapeutic effect in mice with arthritis; assay type: in vivo; conditions: 500 mg/kg oral every other day for 2 weeks
Protocol: Next, in order to examine therapeutic effects of 3′-sialyllactose, mice with arthritis were orally administered with 3′-sialyllactose. In detail, 8-week-old DBA mice were immunized day 0 and day 21, and then orally administered with 500 mg/kg of 3′-sialyllactose every other days for 2 weeks. Control groups were administered with lactose (250 mg/kg), sialic acid (250 mg/kg), or MTX (1 mg/kg).

[8] = test system: Mmp3; assay: Mmp3 expression in IL-1β-treated chondrocytes (qRT-PCR, Western blotting); assay type: cell-based, mouse; conditions: 5 ng/ml of IL-1β, 0 to 250 μM, 24 hrs; concentration-dependent
Protocol: as §2, §3

[9] = test system: DMM-induced osteoarthritis mouse model; assay: DMM-induced osteoarthritis mouse model, oral administration; assay type: in vivo
Protocol: All animal experiments were approved by the Animal Care and Use Committee of the University of Ajou. For osteoarthritis models, 8-week-old male C57BL/6 mice were subjected to destabilization of the medial meniscus (DMM) surgery. Mice knee joints were processed for histological analysis 10 weeks after surgery. In detail, the experimental mice also received gavage feeding of PBS containing 3′-sialyllactose (100 mg/Kg) starting at 2 weeks prior to DMM, and oral feeding on every other day during 4 weeks after surgery, and performed three times a week for total 6 weeks until the end of the experiment. Then, the mice were sacrificed. Control mice were administered with PBS in the same manner.
Knee joints of the mice sacrificed in Example 6-1 were fixed in 4% paraformaldehyde, treated with 0.5 M EDTA (pH 8.0) for 2 weeks, and embedded in paraffin. The paraffin blocks were sectioned at a thickness of 5 μm and serial-sectioned at 40-μm intervals. The paraffin sections were deparaffinized in xylene and hydrated with graded ethanol. Cartilage destruction was detected by Safranin-O staining and scored using the Osteoarthritis Research Society International (OARSI) grading system. Mmp3 (ab52915), Mmp13 (ab51072), Cox2 (SC-1745), pErk ((#9101), IjB (9242), Sox9 (NBP2-24659; Novus, Littleton, USA) and Col2a1 (MAB8887) were immunostained as previously described.

[10] = test system: synovial tissues of ankle and knee joints; assay: Staining of ankle and knee joints in rheumatoid arthritis mice (FLS and immune cell proliferation); assay type: in vivo, mouse
[11] = test system: collagen-induced arthritis (CIA) mouse model; assay: Prophylactic effect in collagen-induced arthritis (CIA) mouse model; assay type: in vivo; conditions: 100 mg/kg and 500 mg/kg oral, 4 weeks
Protocol: In order to examine prophylactic effects of 3′-sialyllactose during development of arthritis, collagen-induced arthritis (CIA) mouse model was orally administered with 3′-sialyllactose three times a week for 4 weeks at various concentrations (100 mg/kg and 500 mg/kg). In detail, the mouse models immunized day 1 and day 21 were orally administered with 3′-sialyllactose every other days for 4 weeks after second immunization. Control groups were orally administered with PBS, lactose, or sialic acid.

[12] = test system: mouse FLS; assay: WST-1 assay on mouse FLS; assay type: cell-based
Protocol: as §1

[13] = test system: mouse FLS; assay: Chemokine, pro-inflammatory cytokine and COX2 expression in stimulated mouse FLS; assay type: cell-based; conditions: IL-1β-, IL-6-, IL-17-, and TNF-α-stimulated mouse FLS; 100 μM or 250 μM, 24 hrs
Protocol: as §1

[14] = test system: type II collagen (Col2a1); assay: Col2a1 expression in chondrocytes (qRT-PCR, Western blotting); assay type: cell-based, mouse; conditions: for Col2a1 expression in chondrocytes: 0 to 250 μM, 36 hrs; for Col2a1 expression suppressed by IL-1β in chondrocytes: 5 ng/ml of IL-1β
Protocol: In order to examine effects of 3′- or 6′-sialyllactose on cartilage formation and regeneration, the chondrocytes obtained in Example 1 were incubated for 36 hrs and then treated with 3′- or 6′-sialyllactose at a concentration of 0 μM, 10 μM, 50 μM, 100 μM, or 250 μM, followed by further incubation for 36 hrs.
Next, in order to perform qRT-PCR, RNA was extracted from the chondrocytes using a TRI reagent (Molecular Research Center Inc.), and cDNA obtained by reverse transcription of RNA was amplified by PCR using primers of SEQ ID NOS: 1 and 2 under condition of annealing temperature of 55° C. to examine expression of type II collagen (Col2a1, 173 bp) which is essential for cartilage formation. As a control group, Gapdh (450 bp, annealing temperature of 58° C.) was examined by using primers of SEQ ID NOS: 3 and 4.
Further, a whole cell lysate was extracted from the chondrocytes using a lysis buffer (150 mM NaCl, 1% NP-40, 50 mM Tris, 5 mM NaF) containing protease and phosphatase inhibitor cocktails (Roche), and Col2a1 expression in the cells was examined. Western blotting was performed using anti-Col2a1 antibody (Millipore) and anti-Erk antibody (Cell signaling), and thickness and concentration of Western blot bands were measured by a computer program and relative values thereof were determined by densitometry (FIGS. 4A and 4B).
IL-1β is a representative inflammatory cytokine inhibiting Col2a1 expression in chondrocytes. Chondrocytes were incubated for 36 hrs, and then treated with 5 ng/ml of IL-1β (GeneScript, USA) for 24 hrs to confirm that Col2a1 expression was decreased by IL-1β.
In order to examine whether the decreased Col2a1 expression is increased again in chondrocytes by 3′- or 6′-sialyllactose, qRT-PCR and Western blotting were performed in the same manner as in Example 2-1.

[15] = test system: Mmp3, Mmp13, and COX2; assay: Mmp3, Mmp13 and COX2 expression in IL-1β-treated mouse FLS; assay type: cell-based
Protocol: as §1
FIGS. 14A-A and 14A-B show FACS results of analyzing marker expression on the FLS surfaces in a mouse according to passages (FIG. 14A-A: CD90.2; FIG. 14A-B: CD14), and a graph of cytotoxicity confirmed by WST-1 assay (FIG. 14A-C), and FIG. 14B is a graph showing Mmp3, Mmp13, and COX2 expression levels according to lactose, sialic acid, and 3′-sialyllactose in IL-1β-treated mouse FLS.

CC(=O)N[C@H]1C([C@H](O)[C@H](O)CO)O[C@@](O[C@@H]2C(O)[C@H](O[C@@H]3C(CO)OC(O)C(O)[C@H]3O)OC(CO)[C@@H]2O)(C(=O)[O-])C[C@H]1O.[Na+] (stereo partly drawn) [3′-sialyllactose]
mouse ear thickness ([1]; 28 days): decreased
ear dermal thickness ([1]; concentration-dependent): decreased
ear epidermal thickness ([1]; concentration-dependent): decreased
number of mast cells in the ear skin (toluidine blue staining) ([1]; concentration-dependent): decreased
expression levels of chemokines, pro-inflammatory cytokines, and COX2 [2]: remarkably decreased
Erk phosphorylation increased by IL-1β [3]: decreased
Mmp13 expression increased by IL-1β in chondrocytes [4]: decreased
Sox-9 activity decreased by IL-1β [5]: restored
cytotoxicity on chondrocytes [6]: did not show cytotoxicity
expression of pro-inflammatory cytokines (mouse sera) [7]: decreased
swelling [7]: alleviated
Mmp3 expression increased by IL-1β in chondrocytes [8]: decreased
OARSI scores (cartilage destruction) compared with control mouse ([9]; 100 mg/Kg gavage, 10 weeks after DMM surgery): remarkably low
Cox2 expression (immunohistochemical staining) ([9]; 100 mg/Kg oral, DMM model): decreased
Mmp3 expression (immunohistochemical staining) ([9]; 100 mg/Kg oral, DMM model): decreased
Mmp13 expression (immunohistochemical staining) ([9]; 100 mg/Kg oral, DMM model): decreased
proliferation of macrophages by rheumatoid arthritis ([10]; ankle and knee synovial tissue, anti-CD68 staining): significantly decreased
proliferation of FLS by rheumatoid arthritis ([10]; ankle and knee synovial tissue, anti-CD90.2 staining): significantly decreased
proliferation of neutrophils by rheumatoid arthritis ([10]; ankle and knee synovial tissue, elastase staining): significantly decreased
synovial hyperplasia and infiltration of mononuclear cells into the ankle and knee joints ([10]; hematoxylin and Safranin-O staining): inhibit
expression of pro-inflammatory cytokines (mouse sera) [11]: decreased
swelling of CIA mouse model [11]: alleviated
FLS proliferation and cytotoxicity [12]: no effects
expression levels of chemokines, pro-inflammatory cytokines, and COX2 [13]: remarkably decreased
Col2a1 expression in chondrocytes [14]: increased
Col2a1 expression suppressed by IL-1β in chondrocytes [14]: gradually increased

CC(=O)N[C@H]1C([C@H](O)[C@H](O)CO)O[C@@](OCC2O[C@@H](O[C@@H]3C(CO)OC(O)C(O)[C@H]3O)C(O)[C@@H](O)[C@H]2O)(C(=O)[O-])C[C@H]1O.[Na+] (stereo partly drawn) [6′-sialyllactose]
Mmp13 expression increased by IL-1β in chondrocytes [4]: decreased
Sox-9 activity decreased by IL-1β [5]: restored
cytotoxicity on chondrocytes [6]: did not show cytotoxicity
Mmp3 expression increased by IL-1β in chondrocytes [8]: decreased
Col2a1 expression in chondrocytes [14]: increased
Col2a1 expression suppressed by IL-1β in chondrocytes [14]: gradually increased

OC[C@H]1O[C@@H](O[C@H]2[C@H](O)[C@@H](O)C(O)O[C@@H]2CO)[C@H](O)[C@@H](O)[C@H]1O (stereo partly drawn) [lactose]
Mmp3, Mmp13, and COX2 expression levels, control groups for 3′-sialyllactose [15]: no significant difference

Source: patent publication US11672815B2, “Composition for inhibiting immune cell proliferation comprising sialyllactose or derivative thereof and method thereof” (CUPIONE CO., LTD., priority 2017, dated 2023)
